# Test results from patent US12454525B2, “IL4I1 inhibitors and methods of use” (Merck Sharp & Dohme LLC, priority 2020, dated 2025).
# Biological target: T1, recombinant IL4I1 (Homo sapiens, UniProt Q96RQ9)
# T1 construct: purchased R&D Systems 5684-AO-020
# T1 sequence (Q96RQ9 22-567): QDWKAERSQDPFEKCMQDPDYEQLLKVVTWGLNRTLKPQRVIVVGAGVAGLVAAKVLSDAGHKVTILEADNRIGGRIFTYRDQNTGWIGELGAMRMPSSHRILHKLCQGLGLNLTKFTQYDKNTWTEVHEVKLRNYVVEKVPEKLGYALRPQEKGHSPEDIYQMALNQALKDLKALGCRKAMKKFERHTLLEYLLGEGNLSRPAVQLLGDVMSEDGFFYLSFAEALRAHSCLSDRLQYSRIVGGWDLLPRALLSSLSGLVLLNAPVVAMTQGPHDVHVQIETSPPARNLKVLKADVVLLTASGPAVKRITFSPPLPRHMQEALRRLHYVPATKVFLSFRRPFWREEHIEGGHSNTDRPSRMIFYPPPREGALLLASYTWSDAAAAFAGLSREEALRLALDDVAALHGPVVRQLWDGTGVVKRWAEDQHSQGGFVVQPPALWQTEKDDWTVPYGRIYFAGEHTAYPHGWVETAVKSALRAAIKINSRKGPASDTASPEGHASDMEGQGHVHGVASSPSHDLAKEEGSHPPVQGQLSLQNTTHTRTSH
# Assay: IL4I1 Enzymatic Assay (Amplex Red/HRP coupled H2O2 detection)
# Type: biochemical
# Conditions: 240 min; four-hour pre-incubation with compound; 1 nM IL4I1, 1 mM each Phe/Tyr/Trp; ten-point titration; fluorescence readout; read-out: Potency EC50 (nM) (240 min)
# Method in brief: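 Recombinant IL4I1 at 1 nM final, pre-incubated 4 h with compound (0.1% DMSO) at ambient temperature in 50 mM Hepes pH 7.0, 0.005% Tween20; 1 mM each Phe/Tyr/Trp, 120 min, H2O2 read via Amplex Red/HRP fluorescence (544/590 nm). EC50 from ten-point four-parameter fit.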
row,Compound,EC50 [nM]
1,"N#Cc1cccc(NC(=O)Cc2cccc(Cn3c(=O)[nH]c4ccccc43)c2)c1 [Example 104, N-(3-cyanophenyl)-2-(3-((2-oxo-2,3-dihydro-1H-benzo[d]imidazol-1-yl)methyl)phenyl)acetamide]",5
2,"CN(C)C(=O)Cc1cccc(Cn2c(=O)[nH]c3ccccc32)c1 [Example 105, N,N-dimethyl-2-(3-((2-oxo-2,3-dihydro-1H-benzo[d]imidazol-1-yl)methyl)phenyl)acetamide]",10
3,"CNC(=O)Cc1ccc(Cn2c(=O)[nH]c3ccccc32)cc1 [Example 107, N-methyl-2-(4-((2-oxo-2,3-dihydro-1H-benzo[d]imidazol-1-yl)methyl)phenyl)acetamide]",5
4,"O=C(Cc1ccc(Cn2c(=O)[nH]c3ccccc32)cc1)N1CCC(F)C1 (centres unmarked) [Example 108, 1-(4-(2-(3-fluoropyrrolidin-1-yl)-2-oxoethyl)benzyl)-1,3-dihydro-2H-benzo[d]imidazol-2-one]",8
5,"CCc1ccc2c(c1)[nH]c(=O)n2Cc1ccccc1 [Example 109, 1-benzyl-5-ethyl-1,3-dihydro-2H-benzo[d]imidazol-2-one]",4940
6,"O=c1[nH]c2cccc(F)c2n1Cc1ccccc1 [Example 110, 1-benzyl-7-fluoro-1,3-dihydro-2H-benzimidazol-2-one]",9160
7,"O=c1[nH]c2ccsc2n1Cc1ccccc1 [Example 113, 3-benzyl-1,3-dihydro-2H-thieno[2,3-d]imidazol-2-one]",2850
8,"O=c1[nH]c2ccccc2n1CC1CCN(c2ccccn2)CC1 [Example 115, 1-((1-(pyridin-2-yl)piperidin-4-yl)methyl)-1,3-dihydro-2H-benzo[d]imidazol-2-one]",1300

# Second part, the compound after the results:
row,EC50 [nM],Compound
1,38,"O=C(Cc1ccc(Cn2c(=O)[nH]c3ccccc32)cc1)NC1CCC(F)C1 (centres unmarked) [Example 106, N-(3-fluorocyclopentyl)-2-(4-((2-oxo-2,3-dihydro-1H-benzo[d]imidazol-1-yl)methyl)phenyl)acetamide]"
2,1320,"O=c1[nH]c2sccc2n1Cc1ccccc1 [Example 112, 1-benzyl-1,3-dihydro-2H-thieno[2,3-d]imidazol-2-one]"
3,107,"O=c1[nH]c2ccccc2n1CCCCc1cccc2cccnc12 [Example 114, 1-(4-(quinolin-8-yl)butyl)-1,3-dihydro-2H-benzo[d]imidazol-2-one]"
